Laboratory results: patent US20030130210A1, “Method for treating a patient with neoplasia by treatment with an anthracycline antibiotic” (priority 1998, published 2003)

Assays:
HT-29 cells [1] = experiment: Apoptosis by DNA fragmentation assay in HT-29 cells; type: cell-based, human; settings: apoptosis inducing activity
[2] = Side effects of exisulind on administration; type: in vivo; settings: doses higher than the recommended therapeutic levels; reversible
Description: This effect is reversible, and liver enzymes return to normal levels when the administered dose of exisulind returns to the traditionally recommended level or when treatment is discontinued. The most serious side effects of anthracycline antibiotics, on the other hand, is their myocardial toxicity and their myelosuppressive activity.

HT-29 cells [3] = experiment: Cyclic nucleotide (cGMP, cAMP) levels in HT-29 cells by radioimmunoassay; type: cell-based, human; settings: HT-29 cells treated for 30 minutes
Experimental: The amount of PDE activity can be determined by assaying for the amount of cyclic GMP in the extract of treated cells using a radioimmunoassay (RIA). In this procedure, a neoplastic cell line is incubated with a test compound. […]
It has been observed that a compound which is useful in the practice of this invention (i.e., one that selectively induces apoptosis in neoplastic cells, but not substantially in normal cells) follows a time course consistent with cGMP-specific PDE inhibition. […] The intracellular targets of these drug actions are being studied further, but current data support the concept that the initial rise in cGMP content and the subsequent fall in cAMP content precede apoptosis in neoplastic cells exposed to test compounds useful in this invention. To determine the cyclic AMP content in cell extracts, radioimmunoassay techniques similar to those described above for cGMP are used.

HT-29 cells [4] = experiment: Apoptosis and necrosis by morphology (acridine orange / ethidium bromide) in HT-29 cells; type: cell-based, human; settings: 120 μM
Experimental: Treatment of cells with test compounds involves either pre- or post-confluent cultures and treatment for two to seven days at various concentrations of the compound in question. Apoptotic cells are measured by combining both the attached and “floating” compartments of the cultures. The protocol for treating tumor cell cultures with sulindac and related compounds to obtain a significant amount of apoptosis has been described in the literature. (See, Piazza, G. A., et al., Cancer Research, 55:3110-16, 1995, which is incorporated herein by reference). The novel features include collecting both floating and attached cells, identification of the optimal treatment times and dose range for observing apoptosis, and identification of optimal cell culture conditions. […]
Reference compounds and test compounds were analyzed for their cGMP-specific PDE inhibitory activity in accordance with the protocols for the assay, supra. […] Apoptotic and necrotic cell death was determined as previously described (Duke and Cohen, In: Current Protocols in Immunology, 3.17.1-3.17.16, New York, John Wiley and Sons, 1992). […]
The apoptosis inducing activity for a series of phosphodiesterase inhibitors was determined. […] Apoptosis and necrosis were determined morphologically after acridine orange and ethidium bromide labeling in accordance with the assay described, supra.

HT-29 cells [5] = experiment: Tumor cell growth inhibition in HT-29 cells; type: cell-based, human; settings: 120 μM, viable cell count after trypan blue staining

Compound	Fold induction at 100 μM (HT-29 cells [1])	effect on levels of cAMP (HT-29 cells [3])	further results
CCCCCC[C@@H]([C@@H](C)O)n1cnc2c(N)ncnc21 (racemic) [EHNA]	<2.0 fold	–	–
CC1=C(CC(=O)O)c2cc(F)ccc2/C1=C\c1ccc(S(C)(=O)=O)cc1 [Exisulind, (Z)-5-fluoro-2-methyl-1-[[4-(methylsulfonyl)phenyl]methylene]indene-3-yl acetic acid]	–	–	side effects at doses higher than recommended [2]: elevated levels of liver enzymes
CSc1ccc(/C=C2/C(C)=C(CC(=O)O)c3cc(F)ccc32)cc1 [Sulindac sulfide]	–	unaffected	apoptosis, time course (HT-29 cells [4]): increase in apoptosis; growth inhibition, time course (HT-29 cells [5]): capable of inhibiting tumor cell growth
CCN(CC)CCSC12CC(=O)OC1(C)/C(=C/c1ccc(S(C)(=O)=O)cc1)c1ccc(F)cc12 (racemic) [A, rac-threo-(E)-1-(N,N′-diethylaminoethanethio)-1-(butan-1′,4′-olido)-[3′,4′:1,2]-6-fluoro-2-methyl-3-(p-methylsulfonylbenzylidene)-indan]	<2.0 fold	–	–
COc1ccc(C2CNC(=O)C2)cc1OC1CCCC1 (stereo not shown) [Rolipram]	–	increased cAMP levels	–
